Calls of active or inactive are those of the source. The rule behind the calls is not given here.

As a reminder, the IC50 is the concentration that gives 50% inhibition.

Nuclear receptor coactivator 1 (Homo sapiens), sequence (Q15788 whole entry, looked up): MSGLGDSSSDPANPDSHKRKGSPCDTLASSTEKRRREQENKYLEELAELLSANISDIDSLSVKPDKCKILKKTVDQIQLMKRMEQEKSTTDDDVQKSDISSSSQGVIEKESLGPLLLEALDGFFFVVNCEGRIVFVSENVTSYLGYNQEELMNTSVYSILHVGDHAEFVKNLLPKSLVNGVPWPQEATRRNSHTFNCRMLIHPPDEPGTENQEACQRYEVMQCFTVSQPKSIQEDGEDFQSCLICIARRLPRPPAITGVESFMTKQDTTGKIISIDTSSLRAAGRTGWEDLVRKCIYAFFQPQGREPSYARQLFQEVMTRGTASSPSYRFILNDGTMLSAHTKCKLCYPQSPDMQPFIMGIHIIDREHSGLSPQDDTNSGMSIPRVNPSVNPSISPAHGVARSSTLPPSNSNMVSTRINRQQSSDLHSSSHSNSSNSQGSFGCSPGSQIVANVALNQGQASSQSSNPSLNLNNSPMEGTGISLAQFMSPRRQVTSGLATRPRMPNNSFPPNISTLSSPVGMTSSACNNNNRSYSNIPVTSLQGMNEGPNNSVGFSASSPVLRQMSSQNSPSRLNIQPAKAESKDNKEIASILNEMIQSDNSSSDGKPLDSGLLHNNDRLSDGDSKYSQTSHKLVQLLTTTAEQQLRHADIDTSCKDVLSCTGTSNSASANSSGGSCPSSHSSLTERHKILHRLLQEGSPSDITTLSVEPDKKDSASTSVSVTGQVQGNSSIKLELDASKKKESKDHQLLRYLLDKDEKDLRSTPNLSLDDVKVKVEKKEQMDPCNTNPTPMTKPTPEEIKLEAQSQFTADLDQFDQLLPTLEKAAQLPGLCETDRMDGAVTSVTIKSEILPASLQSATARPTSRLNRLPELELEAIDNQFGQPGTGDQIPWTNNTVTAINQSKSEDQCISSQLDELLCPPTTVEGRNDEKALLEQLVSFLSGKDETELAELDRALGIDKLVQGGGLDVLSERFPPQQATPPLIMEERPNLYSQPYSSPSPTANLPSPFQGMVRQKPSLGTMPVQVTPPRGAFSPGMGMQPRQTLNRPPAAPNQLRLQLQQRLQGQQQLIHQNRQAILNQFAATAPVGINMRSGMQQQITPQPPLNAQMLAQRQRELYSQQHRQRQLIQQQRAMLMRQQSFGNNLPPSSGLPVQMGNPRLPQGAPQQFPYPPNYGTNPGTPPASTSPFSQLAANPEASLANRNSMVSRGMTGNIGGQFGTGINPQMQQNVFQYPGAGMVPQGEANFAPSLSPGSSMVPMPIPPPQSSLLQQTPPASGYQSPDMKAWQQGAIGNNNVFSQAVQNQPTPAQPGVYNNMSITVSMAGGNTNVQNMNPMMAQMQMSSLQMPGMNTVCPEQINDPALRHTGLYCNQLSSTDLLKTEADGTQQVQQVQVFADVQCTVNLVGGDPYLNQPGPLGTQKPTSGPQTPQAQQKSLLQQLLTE

This assay concerns the target Nuclear receptor coactivator 1 (Homo sapiens) (UniProt Q15788). Description: NCOA1 reporter inhibition potency – cell-based, luminescence, counter-screen for SRC3 inhibitor project, dose response (AID 602168). To be noted: Cell-based SRC1 luciferase reporter. In general terms: Counterscreens check selectivity or assay interference.
For the compound `COc1cccc(/C=N/Nc2cc(-n3nc(C)cc3-c3ccccc3)ncn2)c1O`, the IC50 entry was “inactive”. With `C(=Cc1cnc2ccccc2n1)c1ccc2c(c1)OCO2`, the IC50 result is “inactive”.

With `CC(=O)c1cccc(-c2csc3ncnc(Sc4nnnn4C)c23)c1`, the IC50 was > 35.9 µM (inactive). As to `COc1ccc(/C=C2\CN(Cc3ccccc3)C/C(=C\c3ccc(OC)c(O)c3)C2=O)cc1O`, the IC50 is > 35.9 µM (inactive). For `CCOC(=O)CC(=O)CSc1nccc(-c2cccnc2)n1` the value was > 35.9 µM (inactive); for `COc1cc(/C=C(/C(=O)c2cccs2)c2nc3ccccc3[nH]2)cc(OC)c1O`, > 35.9 µM (inactive); for `Fc1ccc(CSc2nnc(-c3ccncc3)o2)cc1`, 3.43 µM.

Regarding `CCc1nc(N)nc(N)c1-c1ccc(Cl)c([N+](=O)[O-])c1`, the concentration for half-maximal inhibition (IC50) is 0.603 µM.

`Cc1ccc(C2=NN(C(=O)CCl)C(c3cccs3)C2)o1` (stereo not drawn): the IC50 result was “inactive”. For `Nc1nc(CCl)nc(Nc2cccc3ccccc23)n1` the value was “inactive”; for `Cc1ccc(/C=C2\SC(=S)N(CCCC(=O)NC3CCCC3)C2=O)cc1`, 3.26 µM; for `Cc1cccc(CN2CCN(C(=O)CCl)CC2)c1`, > 35.9 µM (inactive). The result for `Brc1ccc2ncc3ccccc3c2c1` reads “inactive”; that for `O=C(CC(Nc1ccc(Cl)cc1Cl)C(=O)O)c1ccccc1` (stereo not drawn), > 35.9 µM (inactive).

`CC(=O)Nc1ccc(SCC(=O)c2cc(C)n(-c3ccccc3)c2C)cc1`: the IC50 was > 35.9 µM (inactive).

For the compound `CC[C@@]1(O)C(=O)OCc2c1cc1n(c2=O)Cc2cc3c(NC(=O)CN)cccc3nc2-1`, the IC50 is 3.78 µM.

For the compound `CCCCN1C=CC(=C2C(=O)c3ccccc3C2=O)C=C1`, the IC50 is > 35.9 µM (inactive).

Regarding `O=C(COc1ccc(Cl)cc1)Nc1ccc(C(=O)NCc2cccnc2)cc1`, the IC50 was 9.27 µM. Consider `Cc1nc2c(-c3ccc(Cl)cc3)cnn2c(N)c1-c1ccc(F)cc1`, for which the IC50 was > 35.9 µM (inactive). Take `Fc1ccccc1-c1csc(=Nc2cccnc2)n1CCCn1ccnc1`: the IC50 was 7.21 µM.

Take `C=CCn1c(O)c(C(C)=NCc2cc(OC)cc(OC)c2)c(=O)[nH]c1=O`: the IC50 is > 35.9 µM (inactive). For `COc1cc2c(c(OC)c1OC)-c1ccc(SC)c(=O)cc1C(NC=O)CC2` (stereo not drawn) the value was > 35.9 µM (inactive). Consider `O=c1[nH]c(O)c(N=Nc2ccc3c(c2)OCCO3)c(=O)[nH]1`, for which the IC50 is > 35.9 µM (inactive). With `CCCC(=O)NC(c1ccc2c(c1)OCO2)c1cc(Cl)c2cccnc2c1O` (stereo not drawn), the IC50 was 7.24 µM. For `COc1cccc(F)c1C(C[N+](=O)[O-])c1c(N)n(C)c(=O)n(C)c1=O` (stereo not drawn) the value was “inactive”. For `O=C(CCl)Nc1cccc(-c2cnc3ccccc3n2)c1`, the IC50 result is “inactive”. For `CCOc1ccc(/C=C2\SC(=S)N(CCCC(=O)NCCCN3CCOCC3)C2=O)cc1` the value was > 35.9 µM (inactive); for `Cc1ccc(N=c2c([N+](=O)[O-])nn(-c3ccc4c(c3)OCCO4)n2O)cc1F`, > 35.9 µM (inactive). The result for `Cc1ccc(N=Nc2ccc3ccccc3c2O)cc1` reads > 35.9 µM (inactive). For `CCOc1cc(C(N)=O)cc(Br)c1OC` the value was “inactive”; for `Cc1ccc(C(=O)Nc2cnc3ccccc3c2)cc1`, “inactive”; for `Nc1nc2c(nnn2C2CC(O)C(CO)O2)c(=O)[nH]1` (stereo not drawn), > 35.9 µM (inactive). For the compound `CN[C@H]1CCc2cc(OC)c(OC)c(OC)c2-c2ccc(OC)c(=O)cc21`, the IC50 was > 35.9 µM (inactive). For `O=[N+]([O-])c1ccc(N(CCO)CCO)c2c1no[n+]2[O-]` the value was “inactive”. `NC(=S)N/N=C1\CCSc2ccc(Cl)cc21`: the IC50 is > 35.8 µM (inactive). For `CCOc1ccccc1-n1c(SCC(=O)Nc2ccccc2C(=O)O)nc2ccccc2c1=O` the value was > 35.9 µM (inactive); for `O=C(CC1CS(=O)(=O)CC1CC(=O)Nc1ccc2c(c1)OCCO2)Nc1ccc2c(c1)OCCO2` (stereo not drawn), > 35.9 µM (inactive). In the case of `CCn1nc(/C=C/c2ccccc2)nc2c(=O)n(C)c(=O)nc1-2`, the IC50 was > 35.9 µM (inactive). For `Oc1ccc(C=NNc2ccccn2)c(O)c1` the value was > 35.9 µM (inactive); for `C=C1C(=O)[C@]23C[C@H]1CCC2[C@@]1(C)C(C[C@@H]3O)[C@](C)(C(=O)OC)CC[C@@H]1O` (stereo partly drawn), “inactive”; for `CCOc1ccc(Nc2cc(C)nc(-n3nc(C)cc3C)n2)cc1`, > 35.9 µM (inactive). The result for `NS(=O)(=O)c1ccc(Sc2nc3ccccc3s2)c([N+](=O)[O-])c1` reads > 35.9 µM (inactive). The result for `C(=N\Nc1nc2ccccc2[nH]1)/c1cccc2cccnc12` reads > 35.9 µM (inactive). On to `CC(=O)N1CCN(c2ncnc3ccccc23)CC1`, for which the IC50 entry was “inactive”. For `COc1cccc2c1C(=N)c1c(O)c3c(c(O)c1C2=O)CC(O)(C(C)=O)CC3OC1CC(N)C(O)C(C)O1` (stereo not drawn) the value was > 35.9 µM (inactive); for `O=C(Nc1nc2cc3c(cc2s1)OCCO3)C1=COCCO1`, “inactive”; for `COc1cc(/C=C2\CC(C(C)(C)C)C/C(=C\c3cc(OC)c(OC)c(OC)c3)C2=O)cc(OC)c1OC` (stereo not drawn), > 35.9 µM (inactive). The result for `COc1ccc(/C=C2/SC(=S)N(CCC(=O)O)C2=O)cc1` reads > 35.9 µM (inactive); that for `CN1C(=O)C2(C(C#N)=C(N)N(c3cc(Cl)cc(Cl)c3)C3=C2C(=O)CCC3)c2ccccc21` (stereo not drawn), > 35.9 µM (inactive). As for `COc1cc2c(ccc3cc(OC)c(OC)c(O)c32)cc1O`, the IC50 entry was “inactive”.

Take `Cc1ccc(/C=C2/SC(=S)N(CCCC(=O)Nc3ccc(O)cc3)C2=O)cc1`: the IC50 was > 35.9 µM (inactive).

On to `Cc1cccc(C)c1NS(=O)(=O)c1ccc(-c2cnc(C3CC3)o2)cc1`, for which the IC50 result was “inactive”. The result for `CCOc1ccc(/C=C2\SC(=S)N(CCC(=O)O)C2=O)cc1` reads 9.2 µM. For `Cc1ncc(CO)c(/C=N/NC(=O)c2cc3c(s2)CCCC3)c1O` the value was “inactive”.

For `O=C(OCCC12CC3CC(CC(C3)C1)C2)c1ccc(NCc2cc(O)ccc2O)cc1`, the IC50 entry was “inactive”.

With `COc1cc(/C=N/NC(=Nc2ccc(C)cc2)c2nc3ccccc3s2)ccc1O`, the IC50 is 8.17 µM. Regarding `CNC(=O)c1cccn(Cc2ccc(C(F)(F)F)cc2)c1=O`, the IC50 is > 35.8 µM (inactive). For `O=C(N/N=C/c1cc(Br)c(Br)s1)c1ccncc1` the value was “inactive”; for `Nc1ccc(-c2cc3ccccc3oc2=O)cc1`, > 35.9 µM (inactive); for `O=C(CCl)N(c1ccccc1)C1CCCCC1`, “inactive”. As to `Nc1ccc(Oc2ccccc2-c2ccccc2)cc1`, the IC50 result was “inactive”.

As to `Cc1nc(N)nc(N)c1-c1ccc(Cl)c(Cl)c1`, the 50% inhibitory concentration (IC50) was 5.41 µM. For `COc1cc(/C=N/NC(N)=S)cc(Br)c1OCc1ccccc1F`, the IC50 entry was “inactive”. For `COC(=O)c1c(C)n(-c2ccc(OC)cc2)c2ccc(O)cc12` the value was 8.12 µM; for `COc1cccc(-c2nnc3sc(C4CCCCC4)nn23)c1`, 3.46 µM. For `CCn1ccnc1CN(C)Cc1cn[nH]c1-c1ccc(OC)c(F)c1` the value was 9.9 µM. For `C(=N\Nc1ccc2ccccc2n1)/c1ccc2c(c1)OCCO2` the value was “inactive”; for `O=C(c1ccncc1)N(Cc1cc2ccccc2[nH]c1=O)C1CCCCC1`, 7.48 µM; for `CCC(=O)c1ccc(O)c(CC=C(C)C)c1`, “inactive”. For the compound `COc1ccc(COC(=O)C2=C(C)NC(=O)NC2c2ccc(F)cc2)cc1` (stereo not drawn), the IC50 result was “inactive”.

As to `COc1ccc(C(C(=O)NC2CCCCC2)N(C(=O)CCl)c2ccc(Cl)cc2)cc1` (stereo not drawn), the IC50 result is “inactive”. The result for `COc1cc2[nH]c3c(Cl)ncnc3c2cc1OC` reads > 35.9 µM (inactive); that for `Cc1nnc(SC(=O)N2c3ccccc3Sc3ccccc32)s1`, > 35.9 µM (inactive); that for `CS(=O)(=O)c1ccc(Sc2nc3ccccc3s2)c([N+](=O)[O-])c1`, > 35.9 µM (inactive).

With `O=C(NCCc1ccccc1)c1ccc2c(c1)OCCO2`, the IC50 result is “inactive”. The result for `COCCNC(=O)c1cc(-c2ccccn2)nc2ccc(S(=O)(=O)N3CCC(C)CC3)cc12` reads > 35.9 µM (inactive); that for `C[C@@H](C(=O)Nc1ccc2c(c1)OCCO2)n1c(=O)[nH]c2ccccc2c1=O`, > 35.9 µM (inactive); that for `COc1ccc(C(C(=O)NC2CCCCC2)N(C(=O)CCl)c2ccc(OC)cc2)cc1` (stereo not drawn), “inactive”. Take `COc1ccc(C)cc1NS(=O)(=O)c1ccc(NC(=O)CN(c2cc([N+](=O)[O-])ccc2C)S(C)(=O)=O)cc1`: the IC50 result was “inactive”. As to `COc1ccc2[nH]c(=O)c(CN(CCN3CCCC3)C(=O)Nc3ccccc3Cl)cc2c1`, the IC50 result was “inactive”. The result for `Nc1ncccc1C(=O)OCC(=O)N1CCN(S(=O)(=O)c2ccc(Cl)cc2)CC1` reads “inactive”; that for `Cc1ccc2nc(-c3ccncc3)c(NC3CCCC3)n2c1`, “inactive”; that for `COc1cccc(/C=N/Nc2ccc([N+](=O)[O-])cn2)c1O`, > 35.9 µM (inactive). For the compound `Cc1ccc(N(CCC#N)C(=O)CCl)cc1C`, the IC50 entry is “inactive”. Turning to `c1csc(Cc2nn3c(-c4ccncc4)nnc3s2)c1`, the IC50 result is “inactive”.

`C=CCOn1c(C)c(C(C)=O)c2c3nonc3ccc21`: the 50% inhibitory concentration (IC50) was 9.06 µM. The result for `CN(C)c1ccc(C(=S)Nc2ccccc2)cc1` reads > 35.9 µM (inactive); that for `Cc1c(CC(=O)NCCCC(=O)O)c(=O)oc2cc3c(cc12)CCC(C)(C)O3`, 9.04 µM. For `Cc1ccc(-n2c(C)cc(C(=O)COc3cccnc3[N+](=O)[O-])c2C)cc1` the value was > 35.9 µM (inactive); for `COc1ccc(OC)c(N/C=C/C(=O)c2ccccc2)c1`, “inactive”. The result for `CC(=O)OCCN1c2ccccc2Sc2cnccc21` reads “inactive”. For `CCN(c1cccc(C)c1)c1ncnc2nc[nH]c12`, the IC50 result was “inactive”. `CC(=O)NC(c1cc(Cl)c2cccnc2c1O)C(C)C` (stereo not drawn): the IC50 is 7.94 µM.
